The results in this text go back to US20120214847A1, “2-[1-PHENYL-5-HYDROXY-4a-SUBSTITUTED-HEXAHYDROCYCLOPENTA[F]INDAZOL-5-YL]ETHYL PHENYL DERIVATIVES AS GLUCOCORTICOID RECEPTOR LIGANDS” (Merck Sharp & Dohme Corp., priority 2009, published 2012).

SMILES strings stand for the structures.

The target in this experiment is T1, human GR (Homo sapiens, UniProt P04150).
T1 construct: naturally expresses the human GR; endogenous in cells
T1 sequence (P04150 1-777): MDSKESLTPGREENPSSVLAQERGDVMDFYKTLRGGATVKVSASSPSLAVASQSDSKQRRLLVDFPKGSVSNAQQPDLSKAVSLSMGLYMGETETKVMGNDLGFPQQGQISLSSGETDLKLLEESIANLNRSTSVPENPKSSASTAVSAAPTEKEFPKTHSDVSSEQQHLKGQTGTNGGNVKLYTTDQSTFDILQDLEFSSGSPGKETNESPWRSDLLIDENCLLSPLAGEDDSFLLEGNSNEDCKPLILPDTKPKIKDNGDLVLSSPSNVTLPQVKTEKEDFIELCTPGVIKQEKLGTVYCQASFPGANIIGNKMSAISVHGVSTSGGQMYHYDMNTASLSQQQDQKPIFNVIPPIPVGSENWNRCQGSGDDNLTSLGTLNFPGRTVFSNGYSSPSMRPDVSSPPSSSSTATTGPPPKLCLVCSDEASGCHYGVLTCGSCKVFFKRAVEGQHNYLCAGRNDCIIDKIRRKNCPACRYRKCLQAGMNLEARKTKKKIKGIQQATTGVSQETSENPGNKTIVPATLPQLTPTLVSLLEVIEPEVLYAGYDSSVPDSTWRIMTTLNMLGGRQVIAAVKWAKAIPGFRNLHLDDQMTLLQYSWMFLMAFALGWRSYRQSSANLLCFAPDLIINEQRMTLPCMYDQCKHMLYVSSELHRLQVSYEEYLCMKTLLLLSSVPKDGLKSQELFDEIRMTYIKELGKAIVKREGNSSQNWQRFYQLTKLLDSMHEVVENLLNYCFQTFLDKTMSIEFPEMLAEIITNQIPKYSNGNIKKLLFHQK
The experiment in a line: Trans-activation modulation of glucocorticoid receptor (GRAMMER), MMTV-LUC reporter in A549 cells. The experiment is classed as cell-based. The conditions noted are these: for Transactivation A549 Cells Grammer Emax (%) / Emax: Emax relative to the activity obtained with 300 nM dexamethasone; for Transactivation A549 Cells Grammer Emax (%) / EC50: A549 cells; for EC50: IP = inflection point, read-out: Transactivation A549 Cells Grammer IP; for Emax: A549, A549 cells, read-out: Transactivation A549 Cells Grammer Emax (%).

With `CC[C@]12Cc3cnn(-c4ccccc4)c3C=C1CC[C@@]2(O)CC(O)c1ccccn1` (single isomer, unassigned) [Example 82a], the “Transactivation A549 Cells Grammer Emax (%)” value stood at 20% and the EC50 came out at 285 nM.
In the case of `OCc1ccccc1CC[C@]1(O)CCC2=Cc3c(cnn3-c3ccc(F)cc3)C[C@@]21C1CC1` [Example 2, (4aR,5R)-4a-Cyclopropyl-1-(4-fluorophenyl)-5-{2-[2-(hydroxymethyl)phenyl]ethyl}-1,4,4a,5,6,7-hexahydrocyclopenta[f]indazol-5-ol], the maximal effect (Emax) came out at 24% and the EC50 was 22 nM.
With `NC(=O)C(O)c1ccccc1CC[C@]1(O)CCC2=Cc3c(cnn3-c3ccc(F)cc3)C[C@@]21C1CC1` (single isomer, unassigned) [Example 3a], the “Transactivation A549 Cells Grammer Emax (%)” value was 7% and the EC50 came out at 125 nM.
Regarding `CC[C@]12Cc3cnn(-c4ccccc4)c3C=C1CC[C@@]2(O)CC(O)c1ccccn1` (single isomer, unassigned) [Example 82b], the “Transactivation A549 Cells Grammer Emax (%)” value is reported as 10% and the EC50 amounted to 174 nM.
The matching figures for `OC(C[C@]1(O)CCC2=Cc3c(cnn3-c3ccc(F)cc3)C[C@@]21C1CC1)c1ccc(F)cn1` (single isomer, unassigned) [Example 79b]: 8% and 46 nM.
For `CC[C@]12Cc3cnn(-c4ccc(F)cc4)c3C=C1CC[C@@]2(O)CCc1ncccc1S(C)(=O)=O` [Example 80, (4aS,5R)-4a-Ethyl-1-(4-fluorophenyl)-5-{2-[3-(methylsulfonyl)pyridin-2-yl]ethyl}-1,4,4a,5,6,7-hexahydrocyclopenta[f]indazol-5-ol], the Emax worked out at 38% and the EC50 came to 56 nM.
The like results for `CC[C@]12Cc3cnn(-c4ccccc4)c3C=C1CC[C@@]2(O)CCc1ncccc1S(=O)(=O)C(C)C` [Example 81, (4aS,5R)-4a-Ethyl-5-{2-[3-(iso-propylsulfonyl)pyridin-2-yl]ethyl}-1-phenyl-1,4,4a,5,6,7-hexahydrocyclopenta[f]indazol-5-ol] were, in that order, 36% and 96 nM.

The term Emax denotes the size of the effect at its maximum, as opposed to the concentration needed.
